Reference: PubChem BioAssay AID1996
≈ marks a conversion by molar mass, not a printed value.

Conditions: buffer; pH 7.4; 200.0 µM

SMILES	solubility kinetic [mg/mL]
C=C(C)COc1ccc(-c2ncncc2-c2ccccc2OC)c(O)c1	0.0055 (≈ 15.8 µM)
CN(C)CCn1cnc2ccccc21.Cl	> 0.0393
CCOC(=O)c1cnc2c(ccc3ccccc32)c1N	< 0.0003
Cc1ccc(C(=O)N2CCC(C(=O)NCc3ccco3)CC2)cc1	> 0.049
O=C(CNC(=O)C1CCCCC1)OCC(=O)c1ccc(F)cc1	> 0.0482
Cc1cccc(NC(=O)Nc2ccc(OCc3ccccc3)cc2)n1	< 0.0002
N#Cc1ccc(C(=O)NCC2CCCCC2)cc1	0.0199 (≈ 82.1 µM)
OCC(O)CN1CCCC1 (stereo not given)	0.0214 (≈ 147 µM)
O=C(CCNC(=O)c1ccc([N+](=O)[O-])cc1)NCc1cccs1	> 0.05
Cc1c(Cl)cccc1NC(=O)Nc1cccnc1	0.0349 (≈ 133 µM)
O=C(Cc1ccc(Cl)cc1)Nc1cccc2ncccc12	0.0039 (≈ 13.1 µM)
COCCNC(=S)N1CCN(Cc2ccc3c(c2)OCO3)CC1	0.047 (≈ 139 µM)
CC(C)[C@H](NS(=O)(=O)c1ccccc1)C(=O)OCC(=O)Nc1cccc(S(N)(=O)=O)c1	0.0616 (≈ 131 µM)
O=C(COc1cccc(F)c1)Nc1nc(-c2ccncc2)cs1	0.005 (≈ 15.2 µM)
O=C(CN1CCOCC1)Nc1ccc(Cl)cc1	> 0.0382
COc1ccc(-c2csc(NC(=O)c3ccccc3F)n2)cc1	0.0005 (≈ 1.52 µM)
CC(NC(=O)COC(=O)c1ccc2ccccc2n1)c1ccccc1 (stereo not given)	0.0053 (≈ 15.9 µM)
Clc1ccc(CN2CCSCC2)cc1Cl	0.0026 (≈ 9.92 µM)
Cc1ccc(C(=O)NCC(=O)NC2CCCC2)cc1	0.0304 (≈ 117 µM)
Cl.Clc1cccc(CNCCCSc2ncccn2)c1	> 0.0495
FC(F)(F)c1ccc(NC2=NCCCS2)cc1	0.0156 (≈ 59.9 µM)
COC(=O)CNC(=O)C12CC3CC(C1)CC(c1ccc(C)cc1)(C3)C2	0.0065 (≈ 19 µM)
O=C(COC(=O)c1cccs1)Nc1ccccc1[N+](=O)[O-]	0.002 (≈ 6.53 µM)
CC(=O)N1C(=O)NC2=C(C(=O)CCC2)C1c1cccc([N+](=O)[O-])c1 (stereo not given)	> 0.0494

SMILES	solubility kinetic [mg/mL]
CCNc1oc(/C=C/c2ccc(OCC)cc2)nc1C#N	0.0017 (≈ 6 µM)
CCN(C(=O)Cn1c([N+](=O)[O-])cnc1C)c1ccccc1	> 0.0432
Cc1ccc(C(=O)NCC(C)NC(=O)c2ccc(C)c(C)c2)cc1C (stereo not given)	0.0034 (≈ 10 µM)
Cc1cc(/C(N)=N/OC(=O)Nc2ccccc2)no1	0.0157 (≈ 60.3 µM)
O=C1CC2c3ccccc3C1C1C(=O)N(Cc3ccccc3)C(=O)C21 (stereo not given)	> 0.0497
Oc1ccc(N2CCN(CC(O)c3ccccc3)CC2)cc1 (stereo not given)	> 0.0448
COc1cc(/C=C(\CCC(=O)O)c2nc3ccccc3s2)ccc1OCC(=O)Nc1c(Cl)cccc1Cl	0.0242 (≈ 43.4 µM)
O=C(c1cn(Cc2ccccc2F)c2ncccc12)C(F)(F)F	0.0028 (≈ 8.69 µM)
COc1ccc(C(C)=O)cc1CSc1ccccn1	0.0377 (≈ 138 µM)
O=C(CSc1nnc(C2CC2)n1Cc1ccccc1)N1CCNC1=O	> 0.0536
COc1ccccc1CNC(=O)c1cc(C)nc2ccccc12	0.0418 (≈ 136 µM)
Cl.OCCN(CC#CC(O)(c1ccccc1)C1CCCCC1)CCO (stereo not given)	0.053
COc1ccccc1C(=O)NCCCNC(=O)c1cnccn1	0.0366 (≈ 116 µM)
C[N+]1(C)CCc2cc3c(cc2[C@H]1[C@@H]1OC(=O)c2c1ccc1c2OCO1)OCO3.[I-]	> 0.0764
Cc1cc2cc(C#N)c(SCC(=O)Nc3nonc3C)nc2cc1C	0.0003 (≈ 0.849 µM)
O=C(NCc1ccc(F)cc1)c1cnccn1	> 0.0347
O=C(NC(=S)Nc1cccc2ncccc12)c1ccccc1	0.0027 (≈ 8.78 µM)
Cn1c(=O)c2c([nH]c(=O)n2C)n(Cc2ccccc2)c1=O	> 0.0429
O=C(N/C=C/n1cnc2cc(C(F)(F)F)ccc21)c1ccccc1F	0.0049 (≈ 14 µM)
CCOC(=O)C1(Cc2cccc(F)c2)CCN(C(=O)c2ccoc2C)CC1	0.0522 (≈ 140 µM)
O=C(O)CC1SC(=Nc2ccc(O)cc2)NC1=O (stereo not given)	> 0.0399
CSCC(CO)NS(=O)(=O)c1ccc(C)cc1 (stereo not given)	> 0.0413
Cc1c(C(=O)N2CCN(S(=O)(=O)c3cccs3)CC2)oc2ccc(F)cc12	0.0136 (≈ 33.3 µM)
Cc1ccc([N+](=O)[O-])c(OCCN2C(=O)NC(C)(C)C2=O)c1	> 0.0461

SMILES	solubility kinetic [mg/mL]
O=C(COC(=O)c1cc(Br)ccc1Cl)NC1CCCC1	0.0056 (≈ 15.5 µM)
COC(=O)c1sccc1S(=O)(=O)Nc1ccc(C)cc1	0.005 (≈ 16.1 µM)
N#Cc1cc(N2CCOCC2)nc2ccccc12	0.0153 (≈ 63.9 µM)
COc1ccccc1N1CCN(C(=O)c2cc3ccccc3[nH]2)CC1	0.0027 (≈ 8.05 µM)
CC1CCCCC1NC(=O)COc1ccc(C#N)cc1 (stereo not given)	> 0.0409
COc1ccc(NC(=O)COc2ccccc2)cc1Cl	0.034 (≈ 117 µM)
Cc1cc(=O)oc2cc(OCC(=O)N3c4ccccc4NC(=O)C3(C)C)ccc12	0.0173 (≈ 44.1 µM)
COc1ccc(CSCC(=O)Nc2ccccc2)cc1[N+](=O)[O-]	> 0.0499
CCOC(=O)c1c(C)n(C(C)C)c2ccc(OC)cc12	0.0151 (≈ 54.8 µM)
COc1cccc(CNCCc2c[nH]c3ccccc23)c1	0.0358 (≈ 128 µM)
Cc1nc2ccc(NS(=O)(=O)c3cccc([N+](=O)[O-])c3)cc2s1	> 0.0524
O=C1CC2(CC(c3ccc(Cl)cc3)=NO2)C(=O)N1c1ccccc1 (stereo not given)	0.0489 (≈ 144 µM)
N=c1oc2ccc(Cl)cc2cc1C(=O)Nc1ccc(F)cc1	0.001 (≈ 3.16 µM)
Cc1cc(=O)oc2cc(NC(=O)C3CCCC3)ccc12	0.003 (≈ 11.1 µM)
CC1CCC(NC(=O)Cn2c(=O)oc3ccccc32)CC1 (stereo not given)	0.0049 (≈ 17 µM)
CC1CCCCC1N=C1NC(C)(C)CS1 (stereo not given)	> 0.034
CCN(Cc1nc(-c2ccc(C)cc2)no1)C(=O)c1ccco1	0.0389 (≈ 125 µM)
Cc1cc2oc(=O)cc(CN3CCCCC3C)c2cc1C(C)C (stereo not given)	0.0081 (≈ 25.8 µM)
O=C(CNc1ccccc1F)Nc1cccc2ccccc12	0.0104 (≈ 35.3 µM)
Cc1ccc(NC(=O)CCC(=O)c2cccs2)nc1	0.0346 (≈ 126 µM)
O=C(Nc1cccnc1)c1cc(Cl)ccc1Cl	> 0.0401
O=C(Nc1ccc(Cl)cc1)Nc1ccc(-c2cnco2)cc1	0.0007 (≈ 2.23 µM)
O=C(Cn1cncn1)NCCCc1ccccc1	> 0.0366
Cc1ccc(C)c(NC(=O)COC(=O)CC2CC3CCC2C3)c1 (stereo not given)	0.0204 (≈ 64.7 µM)

SMILES	solubility kinetic [mg/mL]
Cc1ccc(CNc2ncc(-c3ccccc3)n2C)o1.O=C(O)C(=O)O	> 0.0536
CCOc1ccc(N(C(=O)C2CCCO2)C2C=CS(=O)(=O)C2)cc1 (stereo not given)	> 0.0527
C=CCOc1ccc(C=Nc2ccc(OC)cc2)c(O)c1	0.0065 (≈ 22.9 µM)
CC(=O)Nc1ccc(NC(=O)c2c(C)noc2C)cc1	> 0.041
O=C(CNC(=O)c1ccco1)NCc1ccc2c(c1)OCO2	0.0346 (≈ 114 µM)
Cc1cc(C)cc(NC(=O)CNC(c2ccccc2)c2ccccc2)c1	0.0011 (≈ 3.19 µM)
Cc1ccc(COC(=O)NCc2cccnc2)cc1	0.0357 (≈ 139 µM)
COc1ccc2c3c([nH]c2c1)C(C)=NCC3	0.0306 (≈ 143 µM)
Cc1ccsc1C(=O)OCC(=O)Nc1nnc(-c2ccccc2)o1	> 0.0515
COc1cc(C(=O)OCCNC(=O)c2ccccc2)cc(OC)c1OC	> 0.0539
COc1cc(NC(=O)c2ccccn2)cc(OC)c1OC	> 0.0432
CC(C)CCN1CCN(Cc2cc3ccccc3[nH]2)CC1CCO (stereo not given)	0.0393 (≈ 119 µM)
CC(Oc1ccc(F)cc1)C(=O)N1CCN(c2ncccn2)CC1 (stereo not given)	> 0.0496
CC(C)N(Cc1ccccc1)C(=S)NCc1ccccc1	0.0194 (≈ 65 µM)
CC1CC(=O)N(c2ccc(Br)cc2)C(=O)C1	> 0.0423
COc1cc(OC)c(C(=O)O/N=C(\N)c2cccc(C)c2)cc1OC	> 0.0517
COc1ccc(NC(=O)CCSCCc2ccccn2)cc1OC	0.0491 (≈ 142 µM)
CC(C(=O)O)N1C(=O)C2C3c4ccccc4C(c4ccccc43)[C@@H]2C1=O (stereo not given in full)	> 0.0521
COc1cc(N)c(Cl)cc1C(=O)OCC(=O)NCc1cccs1	0.0206 (≈ 58.1 µM)
O=c1oc2cccnc2n1CCS(=O)(=O)c1ccc(F)cc1	0.045 (≈ 140 µM)
O=C(c1cccnc1)N1N=C2CCCCCC2C1(O)C(F)(F)F (stereo not given)	> 0.0491
Cc1cccc(C)c1NC(=O)CC(C)c1ccccc1 (stereo not given)	0.0128 (≈ 47.9 µM)
Cc1ccc(NS(=O)(=O)c2cc(C(=O)N(C)C3CCN(C)CC3)ccc2Cl)cc1Cl.O=C(O)C(=O)O	> 0.0841
CC1CCC2(CC1)NC(=O)N(CC(=O)c1ccc3c(c1)OCO3)C2=O (stereo not given)	0.0038 (≈ 11 µM)

SMILES	solubility kinetic [mg/mL]
O=c1[nH]c(=S)n(Cc2ccc(F)cc2)c(O)c1C=NCCCn1ccnc1	> 0.0581
COc1ccc(NC(=O)CCCC(=O)O)cc1Cl	> 0.0408
Cc1ccc(NC(=O)Nc2ccccc2)nc1	0.0026 (≈ 11.4 µM)
O=C1NC(=Nc2cccc(O)c2)S/C1=C\c1cccnc1	0.0012 (≈ 4.04 µM)
CN(C(=O)c1ccc(-c2ccccc2)cc1)C1CCCCC1	0.0015 (≈ 5.11 µM)
O=C(Nc1ccc(Br)cn1)c1ccc(Cl)s1	0.0014 (≈ 4.41 µM)
COc1ccc(NC(=S)Nc2cccnc2)c(OC)c1	0.0425 (≈ 147 µM)
Cc1ccc(NC(=O)COC(=O)C2CC2)cc1Cl	0.0356 (≈ 133 µM)
CC1(C)CC(=O)N(c2ccc(C#N)cc2)C(=O)C1	> 0.0363
Cc1cccc(NC(=O)Nc2c(C)n(C)n(-c3ccccc3)c2=O)c1	> 0.0505
COc1ccc(OC)c(S(=O)(=O)N2CCN(C)CC2c2ccccc2)c1 (stereo not given)	> 0.0565
O=C(NC(=S)Nc1ccc2c(c1)OCCO2)c1ccco1	0.0403 (≈ 132 µM)
CCCC(=O)Nc1ccc2c(c1)COC2=O	0.0185 (≈ 84.4 µM)
COc1ccc(CN2CCN(Cc3ccc(C)cc3)C(CCO)C2)cc1OC (stereo not given)	0.0518 (≈ 135 µM)
CC(OC(=O)c1ccc(Cl)nc1)C(=O)NC1CCCC1 (stereo not given)	0.0247 (≈ 83.2 µM)
Cc1cc(C(=O)COC(=O)c2cccnc2Cl)c(C)n1C	0.013 (≈ 42.4 µM)
O=C1c2ccc([N+](=O)[O-])cc2C(=O)N1Cc1cccnc1	> 0.0425
FC(F)Oc1ccc(NC(=S)NC2CCCCCCC2)cc1	0.0007 (≈ 2.13 µM)
Cc1c(C(=O)Nc2ccccn2)sc2nc3n(c(=O)c12)CCC3	0.0329 (≈ 101 µM)
Cl.OC(CNCc1ccc(-c2ccccc2)cc1)c1ccccc1 (stereo not given)	0.0016
Cc1nc(SCc2c(Cl)cccc2Cl)nc(OC(=O)N(C)C)c1C	0.0022 (≈ 5.69 µM)
CC(C)n1c(Oc2ccc(F)cc2)nc2c1c(=O)n(C)c(=O)n2C	0.0081 (≈ 24.4 µM)
O=C(CNC(=O)c1ccc2c(c1)OCO2)NCc1cccs1	0.0348 (≈ 109 µM)
Cc1cccc2cc(CNCc3ccccc3)c(Cl)nc12	0.0038 (≈ 12.8 µM)
